For test [1], the target named is T1, human orexin-2 (hOX2) receptors (Homo sapiens, UniProt O43614).
T1 construct: expressed in transfected cells
T1 sequence (O43614 1-444): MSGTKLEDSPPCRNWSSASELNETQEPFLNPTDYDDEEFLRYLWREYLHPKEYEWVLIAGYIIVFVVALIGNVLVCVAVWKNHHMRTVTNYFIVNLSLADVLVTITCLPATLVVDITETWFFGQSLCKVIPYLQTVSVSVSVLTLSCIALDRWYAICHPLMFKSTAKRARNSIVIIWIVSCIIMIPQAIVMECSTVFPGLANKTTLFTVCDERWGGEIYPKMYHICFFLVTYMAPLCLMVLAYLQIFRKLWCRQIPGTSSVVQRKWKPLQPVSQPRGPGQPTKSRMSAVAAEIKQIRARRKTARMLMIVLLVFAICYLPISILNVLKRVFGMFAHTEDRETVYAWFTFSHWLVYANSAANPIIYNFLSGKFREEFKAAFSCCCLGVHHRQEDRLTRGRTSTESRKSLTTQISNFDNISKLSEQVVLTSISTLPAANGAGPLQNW
Kind of test: Intracellular Ca2+ mobilization assay (FLIPR), CHO(dHFr-) cells expressing hOX2. It is filed as cell-based. Conditions: antagonism of orexin-A at EC80; Kb=IC50/(1+[A]/EC50); CHO(dHFr-)-OX2R cells. As to the method:
(§1) Intracellular Ca^2+ Mobilization Assay
(§2) The Chinese Hamster Ovary (dHFr-) mutant cell line stably expressing human orexin-1 (hOX1) or human orexin-2 (hOX2) receptors were maintained in Dulbecco's Modified Eagle Medium (1X) with GlutaMax™ 1, 4500 mg/L D-Glucose and Sodium Pyruvate (Catalog No. 31966-021, Invitrogen, Carlsbad, Calif.), 5% dialyzed fetal calf serum (Catalog No. 26400-044), 100 μg/ml penicillin and 100 μg/ml streptomycin. The cells were seeded at 5×10^4 cells/well in the poly-D-lysine treated, 96-well, black/clear-bottomed plates (Catalog No. BD356640, BD Biosciences, Palo Alto, Calif.). 24 h later, the cells were loaded for 1 h at 37° C. with 4 μM Flou-4 acetoxymethyl ester (Catalog No. F-14202, Molecular Probes, Eugene, Oreg.) in FLIPR buffer (1×HBSS, 20 mM HEPES, 2.5 mM Probenecid). Hanks' Balanced Salt Solution (HBSS) (10X) (catalog No. 14065-049) and HEPES (1M) (catalog No. 15630-056) were purchased from Invitrogen, Carlsbad, Calif. Probenecid (250 mM) (catalog No. P8761) was from Sigma, Buchs, Switzerland. The cells were washed five times with FLIPR buffer to remove excess dye and intracellular calcium mobilization, [Ca^2+]i were measured using a Fluorometric Imaging Plate Reader (FLIPR-96, Molecular Devices, Menlo Park, Calif.) as described previously (Malherbe et al., Mol. Pharmacol., 64, 823-832, 2003). Orexin A (catalog No. 1455, Toris Cookson Ltd, Bristol, UK) was used as agonist. Orexin A ([…] stock solution in DMSO) was diluted in FLIPR buffer+0.1% BSA. The EC50 and EC80 values of orexin-A were measured daily from standard agonist concentration-response curves in CHO(dHFr-)-OX1R and -OX2R cell lines. All compounds were dissolved in 100% DMSO. Inhibition curves were determined by addition of 11 concentrations (0.0001-10 μM) of inhibitory compounds and using EC80 value of orexin-A as agonist (a concentration which gave 80% of max agonist response, determined daily). The antagonists were applied 25 min (incubation at 37° C.) before the application of the agonist. Responses were measured as peak increase in fluorescence minus basal, normalized to the maximal stimulatory effect induced by EC80 value of orexin-A or orexin-B. Inhibition curves were fitted according to the Hill equation: y=100/(1+(x/IC50)^nH), where nH=slope factor using Excel-fit 4 software (Microsoft).
(§3) Kb values were calculated according to the following equation Kb=IC50/(1+[A]/EC50) where A is the concentration of agonist added which is very close to agonist EC80 value, and IC50 and EC50 values were derived from the antagonist inhibition and orexin-A or B agonist curves, respectively.

In test [2] the target is T2, human orexin-1 (hOX1) receptors (Homo sapiens, UniProt O43613).
T2 construct: expressed in transfected cells
T2 sequence (O43613 1-425): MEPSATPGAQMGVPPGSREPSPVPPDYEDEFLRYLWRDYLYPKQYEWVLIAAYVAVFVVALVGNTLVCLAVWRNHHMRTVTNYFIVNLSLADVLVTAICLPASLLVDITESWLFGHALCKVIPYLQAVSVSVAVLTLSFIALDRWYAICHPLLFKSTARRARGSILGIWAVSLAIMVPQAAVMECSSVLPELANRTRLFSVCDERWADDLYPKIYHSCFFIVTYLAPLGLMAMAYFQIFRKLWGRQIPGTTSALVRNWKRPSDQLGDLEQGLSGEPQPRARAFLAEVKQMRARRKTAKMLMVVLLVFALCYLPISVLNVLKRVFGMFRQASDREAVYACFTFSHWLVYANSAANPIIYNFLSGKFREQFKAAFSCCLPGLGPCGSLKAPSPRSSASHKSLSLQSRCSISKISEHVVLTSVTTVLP
Kind of test: Intracellular Ca2+ mobilization assay (FLIPR), CHO(dHFr-) cells expressing hOX1. Format: cell-based. Conditions: antagonism of orexin-A at EC80; Kb=IC50/(1+[A]/EC50); CHO(dHFr-)-OX1R cells. The procedure:
as §1, §2, §3

By Kb is commonly meant the equilibrium dissociation constant of an antagonist, usually derived from a functional assay. In the case of `CNC(=O)C(c1ccccc1)N1CCc2sc(C)cc2C1CCc1ccc(C(F)(F)F)cc1` (single isomer, unassigned) [Example 4, N-Methyl-2-{2-methyl-4-[2-(4-trifluoromethyl-phenyl)-ethyl]-6,7-dihydro-4H-thieno[3,2-c]pyridin-5-yl}-2-phenyl-acetamide], the Kb turned out to be 0.0204 µM in test [1] and 0.047 µM in test [2].
Taken in the same sequence, the figures for `CNC(=O)C(c1ccccc1)N1CCc2sc(C)cc2C1CCc1ccc(C(F)(F)F)cc1` (single isomer, unassigned) [Example 6, N-Methyl-2-{2-methyl-4-[2-(4-trifluoromethyl-phenyl)-ethyl]-6,7-dihydro-4H-thieno[3,2-c]pyridin-5-yl}-2-phenyl-acetamide] were 0.0091 µM and 0.0401 µM.
Taken in the same sequence, the figures for `CNC(=O)C(c1ccccc1)N1CCc2sc(C)cc2C1CCc1ccc(OC)cc1` (single isomer, unassigned) [Example 7, 2-{4-[2-(4-Methoxy-phenyl)-ethyl]-2-methyl-6,7-dihydro-4H-thieno[3,2-c]pyridin-5-yl}-N-methyl-2-phenyl-acetamide] were 0.0266 µM and 0.0311 µM.
Regarding `CNC(=O)C(c1ccccc1)N1CCc2sc(C)cc2C1CCc1ccc(OC)cc1` (single isomer, unassigned) [Example 8, 2-{4-[2-(4-Methoxy-phenyl)-ethyl]-2-methyl-6,7-dihydro-4H-thieno[3,2-c]pyridin-5-yl}-N-methyl-2-phenyl-acetamide], the antagonist dissociation constant (Kb) was determined as 0.0075 µM in test [1] and 0.0135 µM in test [2].
Taken in the same sequence, the figures for `CNC(=O)C(c1ccccc1)N1CCc2sc(C)cc2C1CCc1ccc(OC)cc1` (single isomer, unassigned) [Example 9, 2-{4-[2-(4-Methoxy-phenyl)-ethyl]-2-methyl-6,7-dihydro-4H-thieno[3,2-c]pyridin-5-yl}-N-methyl-2-phenyl-acetamide] were 0.0566 µM and 0.408 µM.
`CNC(=O)C(c1ccccc1)N1CCc2ncccc2C1CCc1ccc(OC)cc1` (single isomer, unassigned) [Example 11, 2-{5-[2-(4-Methoxy-phenyl)-ethyl]-7,8-dihydro-5H-[1,6]naphthyridin-6-yl}-N-methyl-2-phenyl-acetamide]: the antagonist dissociation constant (Kb) came to 0.0215 µM in test [1] and 0.164 µM in test [2].
Taken in the same sequence, the figures for `CNC(=O)C(c1ccccc1)N1CCc2sc(C)c(C)c2C1CCc1ccc(OC)cc1` (single isomer, unassigned) [Example 13, 2-{4-[2-(4-Methoxy-phenyl)-ethyl]-2,3-dimethyl-6,7-dihydro-4H-thieno[3,2-c]pyridin-5-yl}-N-methyl-2-phenyl-acetamide] were 0.005 µM and 0.0402 µM.
Taken in the same sequence, the figures for `CNC(=O)C(c1ccccc1)N1CCc2sc(C)c(C)c2C1CCc1ccc(OC)cc1` (single isomer, unassigned) [Example 14, 2-{4-[2-(4-Methoxy-phenyl)-ethyl]-2,3-dimethyl-6,7-dihydro-4H-thieno[3,2-c]pyridin-5-yl}-N-methyl-2-phenyl-acetamide] were 0.0036 µM and 0.0221 µM.
Taken in the same sequence, the figures for `CNC(=O)C(c1ccccc1)N1CCc2sc(C)c(C)c2C1CCc1ccc(OC)cc1` (single isomer, unassigned) [Example 15, 2-{4-[2-(4-Methoxy-phenyl)-ethyl]-2,3-dimethyl-6,7-dihydro-4H-thieno[3,2-c]pyridin-5-yl}-N-methyl-2-phenyl-acetamide] were 0.0169 µM and 0.408 µM.
For `CNC(=O)C(c1ccccc1)N1CCc2ccsc2C1CCc1ccc(C(F)(F)F)cc1` (single isomer, unassigned) [Example 16, N-Methyl-2-phenyl-2-{7-[2-(4-trifluoromethyl-phenyl)-ethyl]-4,7-dihydro-5H-thieno[2,3-c]pyridin-6-yl}-acetamide], the antagonist dissociation constant (Kb) in test [1] was determined as 0.0148 µM; in test [2], 0.0524 µM.
Taken in the same sequence, the figures for `CNC(=O)C(c1ccccc1)N1CCc2sc(Cl)cc2C1CCc1ccc(OC)cc1` (single isomer, unassigned) [Example 17, 2-{2-Chloro-4-[2-(4-methoxy-phenyl)-ethyl]-6,7-dihydro-4H-thieno[3,2-c]pyridin-5-yl}-N-methyl-2-phenyl-acetamide] were 0.0462 µM and 0.0162 µM.
As for `CNC(=O)C(c1ccccc1)N1CCc2sc(Cl)cc2C1CCc1ccc(OC)cc1` (single isomer, unassigned) [Example 18, 2-{2-Chloro-4-[2-(4-methoxy-phenyl)-ethyl]-6,7-dihydro-4H-thieno[3,2-c]pyridin-5-yl}-N-methyl-2-phenyl-acetamide], the Kb in test [1] was 0.032 µM; in test [2] it was 0.0095 µM.
Taken in the same sequence, the figures for `CNC(=O)C(c1ccccc1)N1CCc2ncccc2C1CCc1ccc(OC)cc1` (single isomer, unassigned) [Example 22, 2-{5-[2-(4-Methoxy-phenyl)-ethyl]-7,8-dihydro-5H-[1,6]naphthyridin-6-yl}-N-methyl-2-phenyl-acetamide] were 0.038 µM and 0.105 µM.
Taken in the same sequence, the figures for `CNC(=O)C(c1ccccc1)N1CCc2ncccc2C1CCc1cccc(OC)c1` (single isomer, unassigned) [Example 23, 2-{5-[2-(3-Methoxy-phenyl)-ethyl]-7,8-dihydro-5H-[1,6]naphthyridin-6-yl}-N-methyl-2-phenyl-acetamide] were 0.0852 µM and 0.223 µM.
Taken in the same sequence, the figures for `CNC(=O)C(c1ccccc1)N1CCc2ncccc2C1CCc1cccc(OC)c1` (single isomer, unassigned) [Example 25, 2-{5-[2-(3-Methoxy-phenyl)-ethyl]-7,8-dihydro-5H-[1,6]naphthyridin-6-yl}-N-methyl-2-phenyl-acetamide] were 0.0296 µM and 0.108 µM.
Take `CNC(=O)C(c1ccccc1)N1CCc2ncccc2C1CCc1ccc(C(F)(F)F)cc1` (single isomer, unassigned) [Example 26, N-Methyl-2-phenyl-2-{5-[2-(4-trifluoromethyl-phenyl)-ethyl]-7,8-dihydro-5H -[1,6]naphthyridin-6-yl}-acetamide]: the values for the antagonist equilibrium constant (Kb) in test [1] and in test [2] were 0.0356 µM and 0.348 µM, respectively.
Taken in the same sequence, the figures for `CNC(=O)C(c1ccccc1)N1CCc2ncccc2C1CCc1ccc(F)cc1` (single isomer, unassigned) [Example 28, 2-{5-[2-(4-Fluoro-phenyl)-ethyl]-7,8-dihydro-5H-[1,6]naphthyridin-6-yl}-N-methyl-2-phenyl-acetamide] were 0.0601 µM and 0.301 µM.

The record behind these values is patent publication US8067598B2, “Heterofused piperidines as orexin antagonists” (Hoffman-La Roche Inc., priority 2007, dated 2011).
